Assay results: ChEMBL document CHEMBL1149783, “New stereoselective titanium reductive amination synthesis of 3-amino and polyaminosterol derivatives possessing antimicrobial activities” (2008)
≈ marks a conversion by molar mass, not a printed value.

What was measured:
Type in all cases: functional
Enterococcus faecalis = assay: Antibacterial activity against Enterococcus faecalis CIP 103015 by broth microdilution method
Saccharomyces cerevisiae = assay: Antifungal activity against Saccharomyces cerevisiae CIP 28383 by broth microdilution method
Escherichia coli = assay: Antibacterial activity against Escherichia coli CIP 54127 by broth microdilution method
Staphylococcus aureus = assay: Antibacterial activity against Staphylococcus aureus CIP 4.83 by broth microdilution method
Candida albicans = assay: Antifungal activity against Candida albicans CIP 1180-79 by broth microdilution method

| Structure (SMILES) | MIC (Enterococcus faecalis) [µg/mL] | MIC (Saccharomyces cerevisiae) [µg/mL] | MIC (Escherichia coli) [µg/mL] | MIC (Staphylococcus aureus) [µg/mL] | MIC (Candida albicans) [µg/mL] |
| --- | --- | --- | --- | --- | --- |
| CC(C)CCC[C@@H](C)[C@H]1CC[C@H]2[C@@H]3CC[C@H]4C[C@@H](NCCN)CC[C@]4(C)[C@H]3CC[C@]12C | > 50 | 50 (≈ 116 µM) | > 50 | 12.5 (≈ 29 µM) | > 50 |
| CC(C)CCC[C@@H](C)[C@H]1CC[C@H]2[C@@H]3CC=C4C[C@@H](NCCCNCCCCNCCCN)CC[C@]4(C)[C@H]3CC[C@]12C | > 50 | > 50 | > 50 | 6.25 (≈ 10.9 µM) | > 50 |
| CC(C)CCC[C@@H](C)[C@H]1CC[C@H]2[C@@H]3CC[C@H]4C[C@@H](NCCCCN)CC[C@]4(C)[C@H]3CC[C@]12C | > 50 | 50 (≈ 109 µM) | > 50 | 12.5 (≈ 27.2 µM) | 25 (≈ 54.5 µM) |
| CN[C@H]1CC[C@@]2(C)C(=CC[C@H]3[C@@H]4CC[C@H]([C@H](C)CCCC(C)C)[C@@]4(C)CC[C@@H]32)C1 | 6.25 (≈ 15.6 µM) | 3.12 (≈ 7.82 µM) | > 50 | 6.25 (≈ 15.6 µM) | > 50 |
| CC(C)CCC[C@@H](C)[C@H]1CC[C@H]2[C@@H]3CC[C@H]4C[C@@H](NCCCN)CC[C@]4(C)[C@H]3CC[C@]12C | > 50 | > 50 | > 50 | > 50 | > 50 |
| CC(C)CCC[C@@H](C)[C@H]1CC[C@H]2[C@@H]3CC[C@H]4C[C@@H](NCCCCCCN)CC[C@]4(C)[C@H]3CC[C@]12C | > 50 | > 50 | > 50 | > 50 | > 50 |
| CC(C)[C@@H](CC[C@@H](C)[C@H]1CC[C@H]2[C@@H]3[C@H](O)C[C@H]4C[C@@H](NCCCNCCCCNCCCN)CC[C@]4(C)[C@H]3CC[C@]12C)OS(=O)(=O)O.Cl.Cl.Cl.Cl [TRODUSQUEMINE HYDROCHLORIDE] | – | – | 4 | 1 | 4 |
| CC(C)CCCC(C)C1CCC2C3CCC4CC(N)CCC4(C)C3CCC12C (stereo not drawn) | 50 (≈ 129 µM) | > 50 | > 50 | > 50 | 50 (≈ 129 µM) |
| CC(C)CCCC(C)C1CCC2C3CCC4CC(NCCCNCCCCNCCCN)CCC4(C)C3CCC12C (stereo not drawn) | 12.5 (≈ 21.8 µM) | 6.25 (≈ 10.9 µM) | > 50 | 3.12 (≈ 5.45 µM) | 50 (≈ 87.3 µM) |
| CNC1CCC2(C)C(CCC3C2CCC2(C)C(C(C)CCCC(C)C)CCC32)C1 (stereo not drawn) | 6.25 (≈ 15.6 µM) | 12.5 (≈ 31.1 µM) | > 50 | 6.25 (≈ 15.6 µM) | 12.5 (≈ 31.1 µM) |
| CC(C)CCCC(C)C1CCC2C3CCC4CC(NCCCCCCCN)CCC4(C)C3CCC12C (stereo not drawn) | > 50 | > 50 | > 50 | > 50 | > 50 |
| CC(C)CCC[C@@H](C)[C@H]1CC[C@H]2[C@@H]3CC=C4C[C@@H](NCCCN)CC[C@]4(C)[C@H]3CC[C@]12C | 6.25 (≈ 14.1 µM) | > 50 | 6.25 (≈ 14.1 µM) | 6.25 (≈ 14.1 µM) | > 50 |
| CC(C)CCC[C@@H](C)[C@H]1CC[C@H]2[C@@H]3CC=C4C[C@@H](NCCN)CC[C@]4(C)[C@H]3CC[C@]12C | 25 (≈ 58.3 µM) | > 50 | 12.5 (≈ 29.2 µM) | 12.5 (≈ 29.2 µM) | > 50 |

The remaining lines, values ahead:

| MIC (Enterococcus faecalis) [µg/mL] | MIC (Saccharomyces cerevisiae) [µg/mL] | MIC (Escherichia coli) [µg/mL] | MIC (Staphylococcus aureus) [µg/mL] | MIC (Candida albicans) [µg/mL] | Structure (SMILES) |
| --- | --- | --- | --- | --- | --- |
| > 50 | > 50 | > 50 | > 50 | > 50 | CC(C)CCC[C@@H](C)[C@H]1CC[C@H]2[C@@H]3CCC4=C[C@@H](NCCCCCCCCCCN)CC[C@]4(C)[C@H]3CC[C@]12C |
| > 50 | > 50 | > 50 | > 50 | > 50 | CC(C)CCC[C@@H](C)[C@H]1CC[C@H]2[C@@H]3CCC4=C[C@@H](NCCCCCCCN)CC[C@]4(C)[C@H]3CC[C@]12C |
| > 50 | > 50 | > 50 | > 50 | > 50 | CC(C)CCC[C@@H](C)[C@H]1CC[C@H]2[C@@H]3CCC4=C[C@@H](NCCCCCCN)CC[C@]4(C)[C@H]3CC[C@]12C |
| > 50 | > 50 | 50 (≈ 87.6 µM) | 6.25 (≈ 10.9 µM) | 50 (≈ 87.6 µM) | CC(C)CCC[C@@H](C)[C@H]1CC[C@H]2[C@@H]3CCC4=C[C@@H](NCCCNCCCCNCCCN)CC[C@]4(C)[C@H]3CC[C@]12C |
| > 50 | > 50 | > 50 | 12.5 (≈ 28.2 µM) | 25 (≈ 56.5 µM) | CC(C)CCC[C@@H](C)[C@H]1CC[C@H]2[C@@H]3CCC4=C[C@@H](NCCCN)CC[C@]4(C)[C@H]3CC[C@]12C |
| > 50 | > 50 | > 50 | > 50 | > 50 | CC(C)CCC[C@@H](C)[C@H]1CC[C@H]2[C@@H]3CCC4=C[C@@H](NCCCCCCCCN)CC[C@]4(C)[C@H]3CC[C@]12C |
| 50 (≈ 106 µM) | 25 (≈ 52.9 µM) | > 50 | 6.25 (≈ 13.2 µM) | 50 (≈ 106 µM) | CC(C)CCC[C@@H](C)[C@H]1CC[C@H]2[C@@H]3CC[C@H]4C[C@@H](NCCCCCN)CC[C@]4(C)[C@H]3CC[C@]12C |
| 25 (≈ 62.5 µM) | 12.5 (≈ 31.3 µM) | > 50 | 1.56 (≈ 3.9 µM) | 12.5 (≈ 31.3 µM) | CN[C@@H]1C=C2CC[C@H]3[C@@H]4CC[C@H]([C@H](C)CCCC(C)C)[C@@]4(C)CC[C@@H]3[C@@]2(C)CC1 |
| 6.25 (≈ 13.7 µM) | 12.5 (≈ 27.4 µM) | 25 (≈ 54.7 µM) | 6.25 (≈ 13.7 µM) | 6.25 (≈ 13.7 µM) | CC(C)CCC[C@@H](C)[C@H]1CC[C@H]2[C@@H]3CCC4=C[C@@H](NCCCCN)CC[C@]4(C)[C@H]3CC[C@]12C |
| > 50 | > 50 | > 50 | > 50 | > 50 | CC(C)CCC[C@@H](C)[C@H]1CC[C@H]2[C@@H]3CCC4=C[C@@H](NCCCCCCCCCN)CC[C@]4(C)[C@H]3CC[C@]12C |
| 6.25 (≈ 13.7 µM) | > 50 | 6.25 (≈ 13.7 µM) | 1.56 (≈ 3.42 µM) | > 50 | CC(C)CCC[C@@H](C)[C@H]1CC[C@H]2[C@@H]3CC=C4C[C@@H](NCCCCN)CC[C@]4(C)[C@H]3CC[C@]12C |
| > 50 | > 50 | > 50 | > 50 | > 50 | CC(C)CCC[C@@H](C)[C@H]1CC[C@H]2[C@@H]3CCC4=C[C@@H](NCCCCCCCCCCCCN)CC[C@]4(C)[C@H]3CC[C@]12C |
| 6.25 (≈ 13.3 µM) | > 50 | > 50 | 6.25 (≈ 13.3 µM) | > 50 | CC(C)CCC[C@@H](C)[C@H]1CC[C@H]2[C@@H]3CCC4=C[C@@H](NCCCCCN)CC[C@]4(C)[C@H]3CC[C@]12C |
| > 50 | > 50 | > 50 | 12.5 (≈ 29.2 µM) | > 50 | CC(C)CCC[C@@H](C)[C@H]1CC[C@H]2[C@@H]3CCC4=C[C@@H](NCCN)CC[C@]4(C)[C@H]3CC[C@]12C |
